From US8729116B2, “Triazole compound having pesticidal activities” (Kumiai Chemical Industry Co., Ltd., priority 2010, dated 2014)

Legend:
Type in all cases: in vivo
[1] = system: susceptible strain two-spotted spider mite (Tetranychus urticae); experiment: Penetration/transfer activity against two-spotted spider mite (susceptible strain), soil irrigation cup test; conditions: 0.0031 mg a.i./seedling, soil drench 5 mL/seedling, soybean, live mites counted after 13 days
Experimental: Penetration/Transfer Activity Against Two-Spotted Spider Mite (Susceptible Strain) (Soil Irrigation Cup Test)
To soybean (Glycine max) planted in a plastic cup, 35 female adults of susceptible strain two-spotted spider mite (Tetranychus urticae) were inoculated and left to stand overnight at a constant temperature chamber at 25° C. (photoperiod conditions: light period of 16 hours/dark period of 8 hours). A test pesticide prepared by diluting the test compound formulated in accordance with Formulation Example 2 to a predetermined concentration as disclosed in Table 4, was applied by soil drench treatment (5 mL/seedling). Upon expiration of 13 days, the number of live mites was counted, and the preventive value was calculated by the formula 2. The test was carried out twice.

[2] = system: resistant strain two-spotted spider mite (Tetranychus urticae); experiment: Miticidal activity against adults of two-spotted spider mite (resistant strain), leaf disk spray test; conditions: spray 2 mg/cm^2 on kidney bean leaf disks, female adults, two days after treatment; for Mortality (%): 100 ppm
Experimental: Miticidal Activity Against Adults of Two-Spotted Spider Mite (Resistant Strain) (Leaf Disk Spray Test)
(§1) A plastic cup having a capacity of 60 mL was half-filled with water, and a perforated cover was put thereon. Absorbent cotton was impregnated with water through the perforations, and two sheets of filter paper were overlaid thereon. Two leaves of kidney beans (Phaseolus vulgaris) cutout in a circular shape with a diameter of 2 cm, were put thereon, and ten female adults of resistant strain two-spotted spider mite (Tetranychus urticae) were inoculated and left to stand overnight in a constant temperature chamber at 25° C. (photoperiod conditions: light period of 16 hours/dark period of 8 hours). After removing abnormal mites and dead mites, a pesticide prepared by diluting the test compound formulated in accordance with Formulation Example 2 with a diluent such as water, as shown in Table 2 was sprayed by an automatic spraying device (2 mg/cm^2). Upon expiration of two days after the treatment, the number of dead mites was counted, and the mortality was calculated by the formula 1. The test was carried out twice.

[3] = system: resistant strain red mite (Panonychus citri); experiment: Miticidal activity against adults of red mite (resistant strain), leaf disk spray test; conditions: spray 2 mg/cm^2 on cinnamon leaf disks, female adults, two days after treatment; for Mortality (%): 6.25 ppm
Experimental: Miticidal Activity Against Adults of Red Mite (Resistant Strain) (Leaf Disk Spray Test)
0.5 mass % of agar was blended to water and put into a plastic cup having a capacity of 60 mL, and two cinnamon leaf disks were put thereon and ten female adults of resistant strain red mite (Panonychus citri) were inoculated and left to stand overnight at a constant temperature chamber at 25° C. (photoperiod conditions: light period of 16 hours/dark period of 8 hours). […] Upon expiration of two days after the treatment, the number of dead mites was counted, and the mortality was calculated by the formula 1. The test was carried out twice.

[4] = system: susceptible strain two-spotted spider mite (Tetranychus urticae); experiment: Miticidal activity against adults of two-spotted spider mite (susceptible strain), leaf disk spray test; conditions: foliar, 48 h, spray 2 mg/cm^2 on kidney bean leaf disks, female adults, two days after treatment
Experimental: Miticidal Activity Against Adults of Two-Spotted Spider Mite (Susceptible Strain) (Leaf Disk Spray Test)
as §1, with “of 2,” for “of 2”, “of susceptible” for “of resistant”, “hours). […]” for “hours). After removing abnormal mites and dead mites, a pesticide prepared by diluting the test compound formulated in accordance with Formulation Example 2 with a diluent such as water, as shown in Table 2 was sprayed by an automatic spraying device (2 mg/cm^2).”

SMILES | Preventive value (%) [1] [%] | mortality at 100 ppm ([2]; Tetranychus urticae, foliar, 48 h) [%] | mortality at 6.25 ppm ([3]; Panonychus citri, foliar, 48 h) [%] | mortality at 3.125 ppm [4] [%] | Mortality (%) [2] [%] | Mortality (%) [3] [%] | mortality at 6.25 ppm ([4]; 6.25 ppm) [%]
Cc1cc(F)c(-n2nc(C(F)(F)F)nc2N)cc1[S+]([O-])CC(F)(F)F (racemic) [Compound No. II, 1-[2-fluoro-4-methyl-5-(2,2,2-trifluoroethylsulfinyl)phenyl]-5-amino-3-(trifluoromethyl)-1H-1,2,4-triazole, reference compound] | 0 | 16 | 36 | 8 |  |  | 
Cc1cc(F)c(-n2nc(C(F)(F)F)nc2N)cc1[S+]([O-])CC(F)(F)F (single isomer, unassigned; (+)) [Compound No. I, (+)-1-[2-fluoro-4-methyl-5-(2,2,2-trifluoroethylsulfinyl)phenyl]-5-amino-3-(trifluoromethyl)-1H-1,2,4-triazole] | 100 |  |  | 79 | 94 | 93 | 
Cc1cc(F)c(-n2nc(C(F)(F)F)nc2N)cc1[S+]([O-])CC(F)(F)F (single isomer, unassigned; (-)) [Compound No. III, (−)-1-[2-fluoro-4-methyl-5-(2,2,2-trifluoroethylsulfinyl)phenyl]-5-amino-3-(trifluoromethyl)-1H-1,2,4-triazole] | 0 |  |  |  | 0 | 0 | 0
